Test results published in patent US5976830A, “Methods of producing doxorubicin” (priority 1996, dated 1999).

System: Streptomyces lividans TK24(pANT195)
Assay: Viability of doxA-transformed culture incubated with daunomycin
Assay type: cell-based
Protocol: Cultures of S. lividans TK24 containing plasmid pANT195 and control cultures of S. lividans TK24 containing plasmid pANT849 were grown on R2YE agar medium containing 10 μg/ml of thiostrepton in standard 100 mm×15 mm plastic petri dishes for 5 days at 30° C., at which time the entire cultures had sporulated. The spores from one entire petri plate were used to inoculate 50 ml of modified YEME medium in 250 ml erlenmeyer flasks. Then 10 μg/ml thiostrepton in DMSO were added to the medium. The thiostrepton was added as selective pressure to maintain the plasmids. The cultures were grown for 48 hours at 30° C. with rotary shaking at 250 rpm, one inch throw on the shaker. After 48 hours, a 1.5 ml sample was removed for plasmid analysis to ensure the presence and size of the insert DNA containing the doxA gene using a "mini-prep" procedure according to Carter, M. J., and I. D. Milton, (1993), "An Inexpensive and Simple Method for DNA Purification on Silica Particles," Nucleic Acids Res., Vol. 21, page 1044. Restriction endonuclease digestion with BspEI and agarose gel electrophoresis generated 1.7 kbp, 2.2 kbp, and 3.14 kbp fragments which indicated an intact plasmid and insert. Then a 10 μL solution containing 100 μg of filter sterilized daunomycin-HCl in distilled water was added to the cultures for a final concentration of 2.0 μg of daunomycin per ml of culture broth. Incubation was continued for 72 hours.
The procedure of Example 1 was repeated, with the following exceptions. The cultures were grown at 28° C. rather than 30° C., for 48 hours. After 48 hours of growth, 500 μg of daunomycin-HCl were added to the cultures for a final concentration of 10.0 μg/ml of daunomycin followed by further incubation for 36 hours, instead of 72 hours.
A 50 ml culture of Streptomyces lividans TK24(pANT195) culture was prepared as in Example 1. […] The cultures were incubated for 48 hours and then extracted as described in Example 1 and analyzed by HPLC and TLC. […]

SMILES: COc1cccc2c1C(=O)c1c(O)c3c(c(O)c1C2=O)C[C@@](O)(C(C)=O)C[C@@H]3O[C@H]1C[C@H](N)[C@H](O)[C@H](C)O1 [daunomycin]
- state of the cultures after incubation with daunomycin (2 μg/ml of daunomycin, cultures of Examples 1 and 2): fully viable
- toxicity to the host (16.7 μg/ml of daunomycin, about 8-fold concentrated mycelia in MOPS buffer pH 7.2 (Example 10)): toxic to the host
- state of the doxA transformed culture at the end of incubation (22.2 μg/ml daunomycin, 48 hours, 28° C., YEME medium (Example 3)): virtually dead
